PMC11110727, “Exploiting thiol-functionalized benzosiloxaboroles for achieving diverse substitution patterns – synthesis, characterization and biological evaluation of promising antibacterial agents” (RSC Medicinal Chemistry, 2024)
≈ marks a conversion by molar mass, not a printed value. Read-outs that look alike come from different tables or passages of the source.

Tests used:
[1] = test system: Gram-negative rods; assay: Antibacterial activity against Gram-negative rods with or without PAβN (text summaries); assay type: cell-based; conditions: Gram-negative rods
Experimental: Direct antimicrobial activity was determined against the following standard strains: (1) Gram-positive cocci: methicillin-sensitive Staphylococcus aureus ATCC 6538P (MSSA), methicillin-resistant S. aureus subsp. aureus ATCC 43300 (MRSA), S. epidermidis ATCC 12228, Enterococcus faecium ATCC 6057, E. faecalis ATCC 29212, Bacillus subtilis ATCC 6633; (2) Gram-negative bacteria from Enterobacteriales order: Klebsiella pneumoniae ATCC 13883, Escherichia coli ATCC 25922, Enterobacter cloacae DSM 6234, Proteus mirabilis ATCC 12453, Serratia marcescens ATCC 13880; (3) Gram-negative non-fermentative rods: Acinetobacter baumannii ATCC 19606, Pseudomonas aeruginosa ATCC 27853, Stenotrophomonas maltophilia ATCC 12714, S. maltophilia ATCC 13637, Burkholderia cepacia ATCC 25416, Bordetella bronchiseptica ATCC 4617; (4) yeasts: Candida albicans ATCC 90028, C. krusei ATCC 6258, C. parapsilosis ATCC 22019, C. tropicalis (Castellani) Berkhout ATCC 750, C. tropicalis IBA 171, C. guilliermondii IBA 155, and Saccharomyces cerevisiae ATCC 9763. Moreover, 5 clinical strains of methicillin-resistant S. aureus were also included: NMI 664 K, NMI 1576 K, NMI 1712 K, NMI 1991 K, and NMI 2541 K. All strains were stored at −80 °C. Prior to testing, each bacterial strain was subcultured twice on tryptic soy agar TSA (bioMerieux) medium and yeast strains on Sabouraud dextrose agar (bioMerieux) for 24–48 h at 30 °C to ensure viability. The antimicrobial activity was evaluated as previously described[26] by the disc-diffusion method and the MIC determination assays according to the EUCAST (ref. [71] and [72]) and CLSI (ref. [53] and [73]) recommendations. Assessment of bactericidal (MBC) and fungicidal (MFC) activities was performed according to the CLSI recommendations.[54,74] […] The new benzosiloxaboroles were dissolved in DMSO (Sigma).
Considering that the MDR efflux pumps often contribute to Gram-negative rod resistance, the MIC values of studied agents, with or without the pump inhibitor, PAβN (20 μg mL^−1) (Sigma), were determined.[75] The MIC was determined using Mueller–Hinton II broth medium (MHB) (Becton Dickinson) by the broth microdilution method, according to the CLSI guideliness.[53] To minimize the influence of PAβN on the destabilization of bacterial cell covers, the tests were conducted in the presence of 1 mM MgSO4 (Sigma).[76] At least a 4-fold reduction in the MIC value after the addition of PAβN was considered significant.[56,77]

[2] = test system: S. aureus NMI 664 K MRSA; assay: Antibacterial activity against clinical MRSA: MIC/MBC; assay type: cell-based; conditions: Staphylococcus aureus, NMI 664 K MRSA
Summary of the method: (§1)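 Strains held at −80 °C were subcultured twice (TSA for bacteria, Sabouraud dextrose agar for yeasts; 24–48 h, 30 °C). MICs were then measured and disc diffusion run following EUCAST and CLSI guidance. Cidal endpoints (MBC, MFC) were assessed per CLSI.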

[3] = test system: S. aureus NMI 1991 K MRSA; assay: as above; assay type: cell-based; conditions: Staphylococcus aureus, NMI 1991 K MRSA
Summary of the method: as §1

[4] = test system: S. aureus NMI 2541 K MRSA; assay: as above; assay type: cell-based; conditions: Staphylococcus aureus, NMI 2541 K MRSA
Summary of the method: as §1

[5] = test system: S. aureus NMI 1712 K MRSA; assay: as above; assay type: cell-based; conditions: Staphylococcus aureus, NMI 1712 K MRSA
Summary of the method: as §1

[6] = test system: Staphylococcus aureus, MSSA and MRSA strains; assay: Antibacterial activity against S. aureus strains (text summaries); assay type: cell-based; conditions: for MIC: Staphylococcus aureus
Experimental: Direct antimicrobial activity was determined against the following standard strains: (1) Gram-positive cocci: methicillin-sensitive Staphylococcus aureus ATCC 6538P (MSSA), methicillin-resistant S. aureus subsp. aureus ATCC 43300 (MRSA), S. epidermidis ATCC 12228, Enterococcus faecium ATCC 6057, E. faecalis ATCC 29212, Bacillus subtilis ATCC 6633; (2) Gram-negative bacteria from Enterobacteriales order: Klebsiella pneumoniae ATCC 13883, Escherichia coli ATCC 25922, Enterobacter cloacae DSM 6234, Proteus mirabilis ATCC 12453, Serratia marcescens ATCC 13880; (3) Gram-negative non-fermentative rods: Acinetobacter baumannii ATCC 19606, Pseudomonas aeruginosa ATCC 27853, Stenotrophomonas maltophilia ATCC 12714, S. maltophilia ATCC 13637, Burkholderia cepacia ATCC 25416, Bordetella bronchiseptica ATCC 4617; (4) yeasts: Candida albicans ATCC 90028, C. krusei ATCC 6258, C. parapsilosis ATCC 22019, C. tropicalis (Castellani) Berkhout ATCC 750, C. tropicalis IBA 171, C. guilliermondii IBA 155, and Saccharomyces cerevisiae ATCC 9763. Moreover, 5 clinical strains of methicillin-resistant S. aureus were also included: NMI 664 K, NMI 1576 K, NMI 1712 K, NMI 1991 K, and NMI 2541 K. All strains were stored at −80 °C. Prior to testing, each bacterial strain was subcultured twice on tryptic soy agar TSA (bioMerieux) medium and yeast strains on Sabouraud dextrose agar (bioMerieux) for 24–48 h at 30 °C to ensure viability. The antimicrobial activity was evaluated as previously described[26] by the disc-diffusion method and the MIC determination assays according to the EUCAST (ref. [71] and [72]) and CLSI (ref. [53] and [73]) recommendations. Assessment of bactericidal (MBC) and fungicidal (MFC) activities was performed according to the CLSI recommendations.[54,74] The following reference agents were used: fluconazole (in the case of fungi), linezolid (for Gram-positive bacteria), and nitrofurantoin (for Gram-negative rods). The new benzosiloxaboroles were dissolved in DMSO (Sigma).

[7] = Determination of acidity constants (pKa) by potentiometric titration; conditions: MeOH/H2O (1:1 v/v) solution
Experimental: 0.1 M NaOH in H2O/MeOH (1 : 1 v/v).
The acidity constants of benzosiloxaboroles 1e, 2e, 6, 20 and 22–24 were determined by standard pH titration with 0.05 M aq. NaOH. The measurements were performed using a thermostated (25.0 °C) glass vessel equipped with a magnetic stirrer and a 10 mL burette. Prior to the measurement, the pH glass electrode was calibrated using borax and phosphate buffers. A solution of the analyzed compound (ca. 20–40 mg) in a mixture of MeOH/H2O (v/v 1 : 1, 30 mL) was titrated until the pH of the solution exceeded the value of 12.0.

[8] = read-out: MBC (first MBC where Eagle effect)
[9] = read-out: second MBC (Eagle effect)

C[Si]1(C)OB(O)c2cc(F)c(SCCS(=O)(=O)c3ccccc3)c(F)c21 [Compound 20, 5,7-Difluoro-1,1-dimethyl-6-((2-(phenylsulfonyl)ethyl)thio)benzo[c][1,2,5]oxasilaborol-3(1H)-ol]
efflux assay result (MIC with PAβN) [1]: actively extruded from bacterial cells
MBC [2, 8]: 12.5 µg/mL (≈ 30.2 µM)
MIC ([2]; read-out: MIC): 6.25 µg/mL (≈ 15.1 µM)
MBC [2, 9]: 400 µg/mL (≈ 965 µM)
MBC [3, 8]: 12.5 µg/mL (≈ 30.2 µM)
MIC ([3]; read-out: MIC): 6.25 µg/mL (≈ 15.1 µM)
MBC [3, 9]: 400 µg/mL (≈ 965 µM)
MBC [4, 8]: 25 µg/mL (≈ 60.3 µM)
MIC ([4]; read-out: MIC): 6.25 µg/mL (≈ 15.1 µM)
MBC [4, 9]: 400 µg/mL (≈ 965 µM)
MBC [5, 8]: 12.5 µg/mL (≈ 30.2 µM)
MIC ([5]; read-out: MIC): 6.25 µg/mL (≈ 15.1 µM)
MBC [5, 9]: 400 µg/mL (≈ 965 µM)
Eagle effect (paradoxical growth) during MBC determination ([6]; S. aureus ATCC 6538P and five MRSA clinical strains): Eagle effect
MIC ([6]; both MSSA and MRSA strains, read-out: MIC values against Staphylococcus aureus): 1.56 to 12.5 µg/mL (≈ 3.77 to 30.2 µM)
MIC ([6]; standard and five clinical MRSA strains (Table 4), read-out: MIC (MRSA)): 3.12 to 6.25 µg/mL (≈ 7.53 to 15.1 µM)
pKa [7]: 5.7
